Data from the supplement of paper PMC10883282.
± gives the standard deviation of the averaged measurements.

Tested on: SW872
Experiment: relative viability vs DMSO control (72 h) (fraction); higher = more viable cells
In short: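 Sarcoma cell lines were seeded in 384-well plates at densities chosen for 80–90% confluence, then 24 h later given 2.5 µl of serially diluted compound drawn from source plates spanning 10 mM to 0.0002 mM. They were held 72 h at 37 °C, 5% CO2, with 0.1% DMSO vehicle and a 5 µM positive control included. Relative viability was read with ATPLite as percent growth and averaged over up to triplicate wells. Rescaling placed full at 1 and none at 0.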

SMILES | relative viability (0.00017 µM) | relative viability (0.00051 µM) | relative viability (0.00152 µM) | relative viability (0.00457 µM) | relative viability (0.01372 µM) | relative viability (0.04115 µM) | relative viability (0.1235 µM) | relative viability (0.3704 µM) | relative viability (1.111 µM) | relative viability (3.333 µM) | relative viability (10 µM) | relative viability (2 pM) | relative viability (5 pM) | relative viability (15 pM) | relative viability (50 pM) | relative viability (0.00014 µM) | relative viability (0.00041 µM) | relative viability (0.0012 µM) | relative viability (0.0037 µM) | relative viability (0.011 µM) | relative viability (200 fM) | relative viability (600 fM)
CC(C)NC(=O)C1CCC(n2c(NC(=O)c3ccc(F)cc3)nc3ccc(CN4CCC(C(C)(C)O)CC4)cc32)CC1 (stereo not drawn) [Belizatinib] | 1.08 ± 0.04 | 1.07 ± 0.027 | 1.04 ± 0.052 | 1.05 ± 0.033 | 1.07 ± 0.01 | 1.05 ± 0.024 | 1.01 ± 0.019 | 0.817 ± 0.034 | 0.5729 ± 0.0013 | 0.412 ± 0.021 | 0.274 ± 0.0093 | – | – | – | – | – | – | – | – | – | – | –
C=CC(=O)N1CCC[C@@H](n2nc(-c3ccc(Oc4ccccc4)cc3)c3c(N)ncnc32)C1 [Ibrutinib] | 1.06 ± 0.016 | 1.06 ± 0.017 | 1.06 ± 0.064 | 1.01 ± 0.022 | 1.01 ± 0.042 | 0.976 ± 0.037 | 0.98 ± 0.081 | 0.923 ± 0.024 | 0.9099 ± 0.0036 | 0.84 ± 0.049 | 0.583 ± 0.027 | – | – | – | – | – | – | – | – | – | – | –
O=C(Cc1ccc(-c2ccc(OCCN3CCOCC3)cc2)cn1)NCc1ccccc1 [KX2-391] | 1.06 ± 0.031 | 1.05 ± 0.037 | 1.08 ± 0.029 | 1.03 ± 0.031 | 1.04 ± 0.034 | 0.912 ± 0.049 | 0.504 ± 0.037 | 0.472 ± 0.029 | 0.435 ± 0.014 | 0.443 ± 0.022 | 0.461 ± 0.028 | – | – | – | – | – | – | – | – | – | – | –
CC(=O)Nc1cccc(-n2c(=O)n(C3CC3)c(=O)c3c(Nc4ccc(I)cc4F)n(C)c(=O)c(C)c32)c1 [Trametinib] | 1.11 ± 0.046 | 1.05 ± 0.055 | 0.856 ± 0.059 | 0.674 ± 0.046 | 0.597 ± 0.0061 | 0.607 ± 0.034 | 0.593 ± 0.008 | 0.593 ± 0.022 | 0.562 ± 0.015 | 0.549 ± 0.031 | 0.564 ± 0.014 | – | – | – | – | – | – | – | – | – | – | –
COc1cc2nccc(Oc3ccc(NC(=O)Nc4cc(C)on4)c(Cl)c3)c2cc1OC [Tivozanib] | 1.07 ± 0.073 | 1.07 ± 0.026 | 1.04 ± 0.031 | 1.06 ± 0.038 | 1.08 ± 0.031 | 1.09 ± 0.039 | 1.08 ± 0.044 | 1.1 ± 0.051 | 1.07 ± 0.028 | 1.03 ± 0.036 | 0.691 ± 0.031 | – | – | – | – | – | – | – | – | – | – | –
COc1cc2c(cc1O)CCN[C@]21CS[C@@H]2c3c(OC(C)=O)c(C)c4c(c3[C@H](COC1=O)N1[C@@H]2[C@H]2c3c(cc(C)c(OC)c3O)C[C@@H]([C@@H]1O)N2C)OCO4 [Trabectedin] | – | – | – | – | – | – | – | – | – | – | – | 1.045 ± 0.0069 | 0.986 ± 0.05 | 0.835 ± 0.034 | 0.606 ± 0.1 | 0.281 ± 0.028 | 0.158 ± 0.0096 | 0.202 ± 0.01 | 0.245 ± 0.0073 | 0.183 ± 0.0041 | 1.03 ± 0.037 | 1.038 ± 0.0094
CNC(=O)c1cc(Oc2ccc(NC(=O)Nc3ccc(Cl)c(C(F)(F)F)c3)c(F)c2)ccn1 [Regorafenib] | 1.11 ± 0.07 | 1.12 ± 0.039 | 1.12 ± 0.034 | 1.14 ± 0.025 | 1.14 ± 0.017 | 1.119 ± 0.011 | 1.11 ± 0.013 | 1.07 ± 0.061 | 0.96 ± 0.027 | 0.824 ± 0.058 | 0.662 ± 0.027 | – | – | – | – | – | – | – | – | – | – | –
C[C@@H]1CCN(C(=O)CC#N)C[C@@H]1N(C)c1ncnc2[nH]ccc12 [Tofacitinib] | 1.12 ± 0.03 | 1.08 ± 0.035 | 1.1 ± 0.028 | 1.09 ± 0.056 | 1.08 ± 0.032 | 1.04 ± 0.081 | 1.03 ± 0.056 | 1.02 ± 0.063 | 0.946 ± 0.068 | 0.887 ± 0.095 | 0.747 ± 0.064 | – | – | – | – | – | – | – | – | – | – | –
COc1cc2c(Oc3ccc4[nH]c(C)cc4c3F)ncnc2cc1OCCCN1CCCC1 [Cediranib] | 1.04 ± 0.024 | 1.05 ± 0.039 | 1.06 ± 0.042 | 1.05 ± 0.016 | 1.063 ± 0.0043 | 1.04 ± 0.035 | 1.06 ± 0.027 | 1.03 ± 0.032 | 0.982 ± 0.022 | 1.05 ± 0.021 | 1.026 ± 0.002 | – | – | – | – | – | – | – | – | – | – | –
CC[C@H](Nc1ncnc2[nH]cnc12)c1nc2cccc(F)c2c(=O)n1-c1ccccc1 [Idelalisib] | 1.09 ± 0.073 | 1.13 ± 0.052 | 1.1 ± 0.034 | 1.1 ± 0.046 | 1.11 ± 0.052 | 1.08 ± 0.055 | 1.07 ± 0.066 | 1.04 ± 0.087 | 0.945 ± 0.043 | 0.876 ± 0.051 | 0.746 ± 0.036 | – | – | – | – | – | – | – | – | – | – | –
Cc1cc(Nc2ncnc3ccc(NC4=NC(C)(C)CO4)cc23)ccc1Oc1ccn2ncnc2c1 [Tucatinib] | 1.07 ± 0.017 | 1.08 ± 0.04 | 1.08 ± 0.016 | 1.09 ± 0.037 | 1.07 ± 0.051 | 1.08 ± 0.011 | 1.08 ± 0.017 | 1.04 ± 0.035 | 1.06 ± 0.04 | 1.03 ± 0.045 | 0.994 ± 0.038 | – | – | – | – | – | – | – | – | – | – | –
Cn1cc(-c2cc3c(N4CCN(c5ncc([C@@](C)(N)c6ccc(F)cc6)cn5)CC4)ncnn3c2)cn1 [Avapritinib] | 0.913 ± 0.047 | 0.95 ± 0.022 | 0.965 ± 0.041 | 0.939 ± 0.026 | 0.972 ± 0.036 | 0.941 ± 0.035 | 0.953 ± 0.032 | 0.886 ± 0.038 | 0.846 ± 0.029 | 0.766 ± 0.038 | 0.67 ± 0.028 | – | – | – | – | – | – | – | – | – | – | –
CC(C)(C)c1cc(NC(=O)Nc2ccc(-c3cn4c(n3)sc3cc(OCCN5CCOCC5)ccc34)cc2)no1 [Quizartinib] | 1.05 ± 0.023 | 1.045 ± 0.0071 | 1.05 ± 0.0053 | 1.041 ± 0.0092 | 1.051 ± 0.0052 | 1.04 ± 0.012 | 1.04 ± 0.019 | 1.03 ± 0.037 | 1.029 ± 0.01 | 1.032 ± 0.0056 | 1.02 ± 0.018 | – | – | – | – | – | – | – | – | – | – | –
O=C(Nc1cnn2ccc(N3CCC[C@@H]3c3cc(F)ccc3F)nc12)N1CC[C@H](O)C1 [Larotrectinib] | 1.09 ± 0.022 | 1.12 ± 0.052 | 1.09 ± 0.072 | 1.08 ± 0.049 | 1.05 ± 0.11 | 0.99 ± 0.076 | 1.06 ± 0.095 | 1.06 ± 0.078 | 1.03 ± 0.065 | 1.03 ± 0.056 | 0.986 ± 0.044 | – | – | – | – | – | – | – | – | – | – | –
Cc1nc(-c2cn3c(n2)-c2ccc(-c4cnn(C(C)(C)C(N)=O)c4)cc2OCC3)n(C(C)C)n1 [Taselisib] | 1 ± 0.044 | 0.996 ± 0.03 | 1.02 ± 0.021 | 0.9808 ± 0.006 | 0.93 ± 0.061 | 0.88 ± 0.017 | 0.758 ± 0.029 | 0.643 ± 0.012 | 0.504 ± 0.015 | 0.381 ± 0.015 | 0.284 ± 0.018 | – | – | – | – | – | – | – | – | – | – | –
Cc1nc(NC(=O)N2CCC[C@H]2C(N)=O)sc1-c1ccnc(C(C)(C)C(F)(F)F)c1 [Alpelisib] | 1.04 ± 0.055 | 1.04 ± 0.046 | 1.03 ± 0.052 | 1 ± 0.062 | 0.965 ± 0.068 | 0.938 ± 0.077 | 0.835 ± 0.039 | 0.778 ± 0.062 | 0.698 ± 0.085 | 0.565 ± 0.035 | 0.398 ± 0.024 | – | – | – | – | – | – | – | – | – | – | –
Cn1cnc2c(F)c(Nc3ccc(Br)cc3F)c(C(=O)NOCCO)cc21 [Binimetinib] | 1.11 ± 0.046 | 1.06 ± 0.027 | 1.02 ± 0.059 | 1.05 ± 0.041 | 0.889 ± 0.038 | 0.724 ± 0.086 | 0.635 ± 0.041 | 0.584 ± 0.011 | 0.589 ± 0.02 | 0.583 ± 0.037 | 0.559 ± 0.026 | – | – | – | – | – | – | – | – | – | – | –
CCc1cc2c(cc1N1CCC(N3CCOCC3)CC1)C(C)(C)c1[nH]c3cc(C#N)ccc3c1C2=O [Alectinib] | 1.03 ± 0.043 | 1.02 ± 0.063 | 1.05 ± 0.069 | 1.04 ± 0.036 | 1.07 ± 0.053 | 1.06 ± 0.046 | 1.09 ± 0.062 | 1.07 ± 0.069 | 1.09 ± 0.058 | 1.07 ± 0.076 | 1.08 ± 0.065 | – | – | – | – | – | – | – | – | – | – | –
